Experimental data published in patent US12594296B2, “Methods for treatment or prevention of damage resulting from radiation, trauma or shock” (priority 2012, dated 2026).
“Also recorded” adds a separate entry of the source. Like-named read-outs stand apart in the source and are kept apart here. Bridge positions count the residues as written; N and C are the ends. Square brackets hold non-standard residues; d marks the D form. Peptide text beside a SMILES is read from it. * marks the point of attachment. Ileψ(thiazoline)Cys = CC[C@H](C)[C@H](N)C1=N[C@H](C(=O)*)CS1; dOrn = NCCC[C@@H](N)C(=O)O

Assays:
Clostridium perfringens = format: in vivo, chicks
A431 epidermal cells = test: Scratch healing of confluent A431 epidermal cell monolayer; format: cell-based; settings: serum free DMEM; 24, 48, 72 or 96 hours
Method: A431 epidermal cells were seeded into 4-well chamber slides in DMEM plus 10% FBS at a density to be confluent the next day (5×10^5/well (˜1.8 cm^2)). The following day, a scratch was made across the confluent monolayer using a sterile 10 μl tip. The medium was aspirated and the wells rinsed with DMEM to remove floating debris. Serum free DMEM was added to all wells, plus or minus PAAG (18 kD, 25% functionalization) or EGF as a positive control. Cells were treated for 24, 48, 72 or 96 hours. Cells were fixed with paraformaldehyde at the indicated times and stained with hematoxylin for better visualization. A representative scratch at time 0 is duplicated at the top of each column of treatments for comparison depicted in FIG. 13.

Acinetobacter baumaunii = test: Caco2 attachment of Acinetobacter baumannii; format: cell-based; settings: pretreatment 200 μg/mL 1 h; relative to untreated cells
Method: Caco2 Attachment. The gut epithelium cell line (Caco2) were grown in Eagle's Minimal Essential Media (EMEM) supplemented with 10% (v/v) fetal bovine serum and 2 mm L-glutamine. Caco2 cells were seeded at 2.5×10^5 per well in 24 well plates and incubated at 37° C. and in atmosphere of 5% CO2 for 24 hours to confluency. The cells were then rinsed twice with D-PBS and replaced with (EMEM) without fetal bovine serum for another 24 hours. Cells were rinsed with D-PBS twice and replaced with media containing no fetal bovine serum. Pretreatment of the cells with PAAG 200 ug/ml (86 kDa, 30% functionalization; 37 kDa, 22% functionalization; and 27 kDa, 21% functionalization) dissolved in media without serum for one hour was performed and the cells were then rinsed twice with D-PBS to remove any non-adherent PAAG. After rinsing, the cells were inoculated with Acinetobacter baumaunii in growth phase at a multiplicity of infection (MOI) of 1:100 for one hour. Cells were then rinsed twice with D-PBS before being lysed using 0.5% Triton X-100 in D-PBS. Supernatants were extracted and serially diluted, plated and counted for bacterial attachment.
(§1) Pretreatment and binding studies were performed as described above for Caco2 cells with Acinetobacter attachment and Burkholderia cepacia macrophage uptake studies, with the PAAG (86 kDa and 30% functionalization) added to the indicated final concentrations.

[1] = tested on: irradiated left buccal cheek pouch (oral mucositis); test: Oral mucositis scheduling study (Example 3); format: in vivo, hamsters; settings: 200 ppm thrice daily Day -1 to 14 or Day 10 to 36, relative to Day -7 to 36 or Day -1 to 36
Method: In a scheduling study, an acute dose of irradiation of 40 Gy directed to the left buccal cheek pouch and the hamsters were treated t.i.d. with 200 μg/mL PAAG or vehicle control directly inserted into the pouch. Schedules included PAAG treatment Day—7 to 36, Day—1 to 36, Day—1 to 14, and Day 10-36. Mean % weight change and mucositis score were recorded. Oral mucositis scheduling study was performed as described above with PAAG (86 kDa and 30% functionalization) added to the indicated final concentrations. The mean mucositis scores for a vehicle control and 200 ppm PAAG administered thrice daily from Day—7 to 36, Day—1 to 36, Day—1 to 14, or Day 10 to 36 is shown in FIG. 7. […] dosed with 200 ppm PAAG administered thrice daily from Day—1 to 14 or from Day 10 to 36 have a reduced mean mucositis score relative to mice dosed with 200 ppm PAAG thrice daily from Day—7 to 36 or from Day—1 to 36.

[2] = tested on: mice exposed to ionizing radiation; test: Survival after three doses of total body radiation (Example 11); format: in vivo, CB57BL/6 mice; settings: for mortality, vehicle versus PAAG: 50 mg/kg once a day oral gavage
Method: Male CB57BL/6 mice of the same weight and age were subjected to radiation doses of 12.5, 13.5 and 14.0 Gy. Animals were given the same dose of PAAG (50 mg/kg once a day) by oral gavage as in the previous study. Eighteen (18) animals were studied in each of […]: irradiated control and active PAAG at each dose. Mortality data is shown in FIG. 30 for three doses of total body radiation treated with vehicle or PAAG given via oral gavage daily.

[3] = tested on: small intestine of irradiated C57BL/6 mice
[4] = tested on: MRSA strain MW2 (ATCC BAA-1707); test: Nasal epithelium/MRSA binding assay (RPMI-2650 cells); format: cell-based; settings: pretreatment 200 or 500 ppm for 5 and 60 minutes; compared to PBS and media controls
[5] = tested on: irradiated left buccal cheek pouch (oral mucositis); test: Mucosal radiation dose ranging study, oral mucositis (Example 2); format: in vivo, Syrian Golden hamsters; settings: 40 Gy to cheek pouch; 50, 100, 250 and 500 μg/mL t.i.d. into the pouch
Method: In a dose ranging study, an acute dose of irradiation of 40 Gy directed to the left buccal cheek pouch of Syrian Golden hamsters and the hamsters were treated t.i.d. with 50, 100, 250 and 500 μg/mL PAAG or vehicle control directly inserted into the pouch. Mean % weight change and mucositis score were recorded. The mucosal radiation dose ranging study was performed as described above with PAAG (86 kDa and 30% functionalization) added to the indicated final concentrations. […] A comparison of the mean percent weight gain for […] dosed with vehicle control and four dosing concentrations of PAAG is shown in FIG. 4. […] The healing effect of PAAG is shown in FIG. 6, which depicts the comparison of the percentage of animals with a mucositis score of 3 or higher on a given day post irradiation for a vehicle control and three doses of PAAG.

[6] = tested on: mice exposed to ionizing radiation; test: Total body irradiation study: survival and body weight (Example 1); format: in vivo; settings: for Percent Dead Per Group: 50 mg/kg p.o. q.d. + 200 ppm in drinking water Days 1-18
Method: Male mice were exposed to an acute irradiation dose on Day 0 of 0, 12.5, or 13.0 Gy at a rate of 1 Gy/min with lead shielding to the left hind limb. Starting 24 hours after irradiation, the mice were untreated or treated with PAAG or vehicle control, given with 50 mg/kg via oral gavage daily and dosed ad libitum in the drinking water (200 ppm PAAG) from days 1 to 18. The treatment groups are summarized on TABLE 1.
The total body irradiation study was performed as described above with control vehicle or PAAG (86 kDa and 30% functionalization) administered to the mice at the indicated final concentrations. […] As shown in the Kaplan-Meier Survival Plot in FIG. 1, there was no mortality in animals that were not irradiated. […] In fact, 88% of the treated animals survived while only 19% of the untreated animals survived. […] The comparative mortality data from these experiments is tabulated on TABLE 2.

[7] = tested on: bacteria in the mesenteric lymph nodes; test: Intestinal bacterial translocation: bacterial count in mesenteric lymph nodes (Example 9); settings: irradiated animals, 13 Gy; FIG. 16
[8] = Irradiation biomarkers in plasma (pro-calcitonin, citrulline) (Example 10)
[9] = tested on: IL-8 production in U937 cells; test: IL-8 production response in LPS-stimulated U937 cells (IL-8 ELISA); format: cell-based, human; settings: 1 h pretreatment, rinsed, LPS 10 ng/ml 4 h; relative to control or lactoferrin pretreatment
Burkholderia cepacia = Burkholderia cepacia macrophage uptake (U937); format: cell-based; settings: pretreatment of U937 with 200 μg/mL; relative to untreated cells
Method: Burkholderia cepacia macrophage uptake. The myeloid cell line (U937) were grown in RPMI 1640 supplemented with 10% (v/v) fetal bovine serum and 2 mm L-glutamine. Cells were seeded at 6×10^5 cells per well in 24 well plates in RPMI 1640 additionally supplemented with 0.1 ug PMA for 48 hours to activate U937 cells to be macrophage-like. Cell media was replaced with cell media without fetal bovine serum and PMA for at least 2 hours. Treatments consisted of either PAAG (200 ug/ml) treated on cells for one hour and being rinsed with D-PBS twice before inoculation or with PAAG treatment with no rinse. Upon completion of pretreatment with PAAG, cells were inoculated with Burkholderia cepacia in growth phase with an MOI of 1:10 for 45 min. After inoculation period media is supplemented with 50 ug/ml of gentamicin for another 45 min. Cells were then rinsed twice with D-PBS before being lysed using 0.5% Triton X-100 in D-PBS and serially diluted, plated and counted for bacterial uptake.
as §1

[10] = 13 Gy, day 4, quantitative histology, FIG. 19

CC[C@H](C)[C@H](N)C1=N[C@H](C(=O)N[C@@H](CC(C)C)C(=O)N[C@H](CCC(=O)O)C(=O)N[C@H](C(=O)N[C@H]2CCCCNC(=O)[C@H](CC(N)=O)NC(=O)[C@@H](CC(=O)O)NC(=O)[C@H](Cc3cnc[nH]3)NC(=O)[C@@H](Cc3ccccc3)NC(=O)[C@H]([C@@H](C)CC)NC(=O)[C@@H](CCCN)NC2=O)[C@@H](C)CC)CS1 [Bacitracin, reference compound] ({Ileψ(thiazoline)Cys}-L[dE]IK[dOrn]I[dF]H[dD]N; lactam 4-C)
mortality relative to control (Clostridium perfringens; ad libitum in water, PAAG at 100 ppm): reduced mortality with statistical significance; also recorded: reduced morality with statistical significance

EGF: EGF as a positive control [reference compound]
healing of scratches (A431 epidermal cells): faster than control

poly (acetyl, arginyl) glucosamine [PAAG (18 kD, 25% functionalization)]
healing of scratches (A431 epidermal cells): faster than control

poly (acetyl, arginyl) glucosamine [PAAG (22 kD, 36% functionalization)]
mortality relative to control (Clostridium perfringens; in vivo): reduced mortality with statistical significance; also recorded: reduced morality with statistical significance | treated animals died (Clostridium perfringens; in vivo): 15%

poly (acetyl, arginyl) glucosamine [PAAG]
percentage of bacteria bound to Caco2 cells (Acinetobacter baumaunii): decreases | mean mucositis score [1]: reduced | mortality, vehicle versus PAAG ([2]; 12.5 Gy): numerically significant | mortality, vehicle versus PAAG ([2]; 13.5 Gy): not statistically different | mortality, vehicle versus PAAG ([2]; 14.0 Gy): not statistically different | mortality ([2]; after LD70 ionizing radiation): reduced | adverse effects ([2]; any dose): No adverse effects | crypt degeneration ([3]; 13 Gy, day 2, 50 mg/kg PO): mild to moderate | villi height, structure and epithelium ([3]; 13 Gy, day 2, 50 mg/kg PO): retained their normal height and structure | crypt regeneration ([3]; 13 Gy, day 3, 50 mg/kg PO): mild to moderate | villi blunting ([3]; 13 Gy, day 3, 50 mg/kg PO): minimally blunted | crypt loss ([3]; 13 Gy, day 4, 50 mg/kg PO): moderate to marked | crypt regeneration ([3]; 13 Gy, day 4, 50 mg/kg PO): moderate to marked | loss of villous epithelium ([3]; 13 Gy, day 4, compared with vehicle group 3): not as severe as in group 3 animals | GI inflammation relative to control [3, 10]: reduced | crypt loss relative to control [3, 10]: reduced | epithelial loss relative to control [3, 10]: reduced | crypt degeneration versus vehicle-treated mice ([3]; 13 Gy, days 2-4): less severe | inflammation versus vehicle-treated mice ([3]; 13 Gy, days 2-4): reduced | protection from the gastrointestinal effects of total body irradiation ([3]; 13 Gy, days 2-4): partially protected | small intestine histology ([3]; mouse, in vivo, po, 50 mg/kg): essentially normal | binding of MRSA to nasal epithelial cells [4]: decreases | course of oral mucositis [5]: modulated the course of oral mucositis | survival difference between treated and untreated groups ([6]; 12.5Gy of radiation, p=0.081): No statistical difference | Percent Dead Per Group ([6]; 12.5 Gy, n=16): 31.25% | No. of Death ([6]; 12.5 Gy, Day 5, euthanized, n=16): 1 | No. of Death ([6]; 12.5 Gy, Day 6, euthanized, n=16): 1 | No. of Death ([6]; 12.5 Gy, Day 7, euthanized, n=16): 3 | Percent Dead Per Group ([6]; 13.0 Gy, based on n=15): 13.33^¶ Percent | No. of Death ([6]; 13.0 Gy, Day 6, found dead, n=15): 1 | No. of Death ([6]; 13.0 Gy, Day 18, euthanized, n=15): 1 | survival difference vehicle versus PAAG ([6]; LD 80 dose (13.0 Gy), p<0.0001): very significant | treated animals survived ([6]; LD 80 dose of radiation (13.0 Gy), untreated 19%): 88% | mean percent weight change ([6]; compared with untreated animals, FIG. 2): no significant effect | Percent Dead Per Group ([6]; no radiation, n=5): 0% | No. of Death ([6]; no radiation, n=5): 0 | bacteria in the MLN (CFU/g) versus vehicle control group [7]: dramatically less | citrulline reduction versus untreated irradiated animals ([8]; 13 Gy): statistically less | circulating plasma levels of PCT relative to controls ([8]; 13 Gy, oral gavage once a day): reduced | circulating amounts of citrulline relative to control ([8]; day 3 and 4 after lethal ionizing radiation): increased | LPS activated IL-8 response [9]: reduced | percentage of bacterial invasion by Burkholderia cepacia (Burkholderia cepacia): decreases
